The values below come from patent publication US20100029590A1, “METHODS FOR TREATING OR PREVENTING HEMORRHAGIC CYSTITIS USING A GLYCEROPHOSPHATE SALT” (PRELIEF INC., priority 2007, published 2010).

The subject of the assay is patients suffering from radiation cystitis. In words: Clinical observation of radiation cystitis patients after prostatic brachytherapy given oral Prelief® (CGP): average number of micturitions per night and symptoms. The class given is in vivo, human. As to conditions: for frequency of urination: six patients. An excerpt:
This example depicts a method of using calcium glycerophosphate (CGP) in treating radiation cystitis in a clinical setting. Methods similar to that exemplified herein, however, is equally applicable to using any glycerophosphate salt in treating or preventing any type of hemorrhagic cystitis.
All six patients, aging from 51 to 74 year old at the time, were under prostatic brachytherapy treatment. […] Two Prelief® tablets, each containing about 0.335 gram CGP, were orally administered to each patient three times a day starting at about 0 to 8 months after the brachytherapy. […] Some patients were also treated with another therapy after the radiation, such as by a stent, or with the administration of AINES, Trospium Chloride, or Tamsulosina. On their post brachytherapy visitations, each patient was asked, among other things, the average number of micturitions per night.
This is in comparison to up to 12 times per night expected micturations in severe cases of this type when patients are given regular medications. The frequency of urination was further reduced by continuing oral administration of CGP.
14, 2002. […] Oral administration of CGP was again reported to be effective in reducing symptoms of hemorrhagic cystitis, e.g., the frequency of urination was reduced to about 7 times or about 2.5 times per night after oral administration of CGP for about 4 months or about 9 months, respectively, following the removal of the stent.

For the substance calcium glycerophosphate [CGP], the “frequency of urination, patient #1” value is “about 11 times per night” (patient #1, about 1 month following removal of a stent (increased symptoms)); “about 11 times per night” (patient #1, about 3 months following brachytherapy, before oral CGP (baseline)); “about 7 times per night” (patient #1, after oral administration of CGP for about 5 months); “about 7 times per night” (patient #1, oral CGP for about 4 months following removal of the stent); “about 2.5 times per night” (patient #1, oral CGP for about 9 months following removal of the stent). Where the note is “reported by each of the six patients after oral administration of CGP”, the “symptoms of radiation cystitis” value is “Reduced symptoms of radiation cystitis”. The pain in bladder result (reported by the patients, oral CGP (data not shown)) is reported as “reduced pain in bladder”. In addition, the frequency of urination (after oral administration of CGP for about three months) is listed as 4.5-7 times per night, the frequency of urination (before oral administration of CGP (baseline)) is 8-11 times per night and the frequency of urination (succeeding seven months of oral CGP) is recorded as 3-7 times per night.
